Measurements reported in patent US9290459B1, “Substituted bicyclic dihydropyrimidinones and their use as inhibitors of neutrophil elastase activity” (Boehringer Ingelheim International GmbH, priority 2013, dated 2016).
≈ marks a conversion by molar mass, not a printed value. Where two headings read alike, the source gives them in different places.

What was measured:
Aqueous solubility = format: physicochemical; conditions: McIlvaine buffer pH 6.8, 2.5% DMSO, 24 h shaking; for solubility at 24 h: McIlvaine buffer pH 6.8 with 2.5% DMSO, pH 6.8, aqueous buffer, kinetic from dmso stock
Procedure: Assay for Determination of Aqueous Solubility […] After 24 h of shaking, the solutions or suspensions are filtered and analyzed by LC-UV. The amount dissolved in buffer is compared to the amount dissolved in the acetonitrile/water (1/1) solution.

[1] = Drug transport across human Caco-2 cells; format: in vitro ADME; conditions: human; for Papp A→B at 10 µM / Papp B→A at 10 µM: Caco-2, pH 7.2, Caco-2 monolayers, pH 7.2, 37° C.; for Papp A→B at 10 µM: apical-to-basal, read-out: PEAB; for Papp B→A at 10 µM: basal-to-apical, read-out: PEBA; for efflux ratio at 10 μM: Caco-2, pH 7.2, PEBA/PEAB, Caco-2
[2] = Metabolic stability with human liver microsomes; format: in vitro ADME; conditions: for half-life at 1 μM: pH 7.6
[3] = biological target: Human neutrophil elastase (Homo sapiens (Human), UniProt P08246); test: Human Neutrophil Elastase Assay; format: biochemical; conditions: human neutrophil elastase, substrate MeOSuc-Ala-Ala-Pro-Val-AMC 250 μM, pH 7.5; read-out: IC50
Human neutrophil elastase, sequence (P08246 30-247): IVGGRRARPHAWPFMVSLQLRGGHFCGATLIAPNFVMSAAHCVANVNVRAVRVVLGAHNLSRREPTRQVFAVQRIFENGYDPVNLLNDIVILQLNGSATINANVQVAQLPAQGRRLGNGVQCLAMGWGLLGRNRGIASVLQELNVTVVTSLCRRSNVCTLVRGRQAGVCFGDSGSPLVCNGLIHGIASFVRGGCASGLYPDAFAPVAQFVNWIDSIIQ

[4] = biological target: neutrophil elastase in human plasma (Homo sapiens (Human), UniProt P08246); test: Neutrophil elastase inhibitory activity in human plasma (zymosan-stimulated blood); format: biochemical; conditions: neutrophil elastase enriched human plasma from zymosan-stimulated blood; read-out: EC50
neutrophil elastase in human plasma, sequence (P08246 30-247): as above

[5] = pooled human liver microsomes, 1 mg/ml protein, 1 μM test compound, 37° C., NADPH

Structure (SMILES) | solubility at 24 h (Aqueous solubility) [µg/mL] | Papp A→B at 10 µM [1] [×10⁻⁶ cm/s] | Papp B→A at 10 µM [1] [×10⁻⁶ cm/s] | half-life at 1 μM ([2]; human, microsomes) [h] | IC50 [3] [nM] | EC50 [4] [nM] | also measured
N#Cc1ccc([C@@H]2C3=C(CCC3=O)N(c3cccc(C(F)(F)F)c3)C(=O)N2C(=O)N[C@H]2CCC[C@@H]2O)cc1 [Example 45.4] | 28 (≈ 53.4 µM) | 38.1 | 77.2 | > 2.17 | – | – | efflux ratio at 10 μM [1]: 2
CNC(=O)N1C(=O)N(c2cccc(C(F)(F)F)c2)C2=C(C(=O)CC2)[C@H]1c1ccc(C#N)cc1F [Example 49A, (S)-4-(4-Cyano-2-fluorophenyl)-N-methyl-2,5-dioxo-1-(3-(trifluoromethyl)phenyl)-4,5,6,7-tetrahydro-1H-cyclopenta[d]pyrimidine-3(2H)-carboxamide] | – | 83.1 | 64.8 | > 2.17 | < 1 | 4 | efflux ratio at 10 μM [1]: 0.8
N#Cc1ccc(C2C3=C(CCC3=O)N(c3cccc(C(F)F)c3)C(=O)N2C(=O)NCCO)cc1 (stereo not drawn) [Example 52.3] | 91 (≈ 195 µM) | – | – | > 2.17 | < 1 | < 1 | –
CNC(=O)N1C(=O)N(c2cccc(C(F)(F)F)c2)C2=C(C(=O)CC2)C1c1ccc(C#N)cc1OC (stereo not drawn) [Example 50.3] | – | 72.4 | 68.1 | > 2.17 | – | – | –
CCN1C(=O)N(c2cccc(C(F)(F)F)c2)C2=C(C(=O)CC2)C1c1ccc(C#N)cc1S(C)(=O)=O (stereo not drawn) [Example 24, 4-(3-Ethyl-2,5-dioxo-1-(3-(trifluoromethyl)phenyl)-2,3,4,5,6,7-hexahydro-1H-cyclopenta[d]pyrimidin-4-yl)-3-(methylsulfonyl)benzonitrile] | – | 62.5 | 85.6 | > 2.17 | 1.6 | 2 | efflux ratio at 10 μM [1]: 1.4
CN1CC(NC(=O)N2C(=O)N(c3cccc(C(F)(F)F)c3)C3=C(C(=O)CC3)C2c2ccc(C#N)cc2)CC1=O (stereo not drawn) [Example 7.9] | – | – | – | – | – | – | Aqueous solubility (Aqueous solubility): 106 µg/mL
CCS(=O)(=O)N1C(=O)N(c2cccc(C(F)(F)F)c2)C2=C(C(=O)CC2)C1c1ccc(C#N)cc1 (stereo not drawn) [Example 35, 4-(3-(Ethylsulfonyl)-2,5-dioxo-1-(3-(trifluoromethyl)phenyl)-2,3,4,5,6,7-hexahydro-1H-cyclopenta[d]pyrimidin-4-yl)benzonitrile] | – | 56.9 | 73.8 | > 2.17 | 2.7 | 7 | efflux ratio at 10 μM [1]: 1.3
CCNC(=O)N1C(=O)N(c2ccnc(C(F)(F)F)c2)C2=C(C(=O)CC2)C1c1ccc(C#N)cc1 (racemic) [Example 54.2] | – | – | – | – | 3.3 | < 1 | Aqueous solubility (Aqueous solubility): 44 µg/mL; t1/2 INVITRO [2, 5]: >2.17 h
CS(=O)(=O)N1C(=O)N(c2cccc(C(F)(F)F)c2)C2=C(C(=O)CC2)C1c1ccc(C#N)cc1Cl (stereo not drawn) [Example 37.2] | – | 84.9 | 99.8 | – | 9.3 | 17 | efflux ratio at 10 μM [1]: 1.2
N#Cc1ccc([C@@H]2C3=C(CCC3=O)N(c3cccc(C(F)(F)F)c3)C(=O)N2C(=O)NC2CCS(=O)(=O)CC2)cc1 [Example 46, (R)-4-(4-Cyanophenyl)-2,5-dioxo-N-(1,1-dioxo-hexahydro-1λ^6-thiopyran-4-yl)-1-(3-(trifluoromethyl)phenyl)-4,5,6,7-tetrahydro-1H-cyclopenta[d]pyrimidine-3(2H)-carboxamide] | – | – | – | – | – | – | Aqueous solubility (Aqueous solubility): 10 µg/mL; t1/2 INVITRO [2, 5]: >2.17 h
CS(=O)(=O)c1cc(C#N)ccc1C1C2=C(CCC2=O)N(c2cccc(C(F)(F)F)c2)C(=O)N1CC(=O)O (stereo not drawn) [Example 19, 2-(4-(4-Cyano-2-(methylsulfonyl)phenyl)-2,5-dioxo-1-(3-(trifluoromethyl)phenyl)-6,7-dihydro-1H-cyclopenta[d]pyrimidin-3(2H,4H,5H)-yl)acetic acid] | 89 (≈ 167 µM) | – | – | > 2.17 | 1.3 | 2 | –
C[S+]([O-])CCNC(=O)N1C(=O)N(c2cccc(C(F)(F)F)c2)C2=C(C(=O)CC2)C1c1ccc(C#N)cc1 (stereo not drawn) [Example 7.6] | – | – | – | – | – | – | Aqueous solubility (Aqueous solubility): 94 µg/mL; t1/2 INVITRO [2, 5]: >2.17 h
CCOC(=O)N1C(=O)N(c2cccc(C(F)(F)F)c2)C2=C(C(=O)CC2)C1c1ccc(C#N)cc1 (stereo not drawn) [Example 31, Ethyl 4-(4-Cyanophenyl)-2,5-dioxo-1-(3-(trifluoromethyl)phenyl)-4,5,6,7-tetrahydro-1H-cyclopenta[d]pyrimidine-3(2H)-carboxylate] | – | 80.9 | 69.5 | > 2.17 | 4.2 | 14 | efflux ratio at 10 μM [1]: 0.9
CS(=O)(=O)c1cc(C#N)ccc1C1C2=C(CCC2=O)N(c2cccc(C(F)(F)F)c2)C(=O)N1CC(=O)N1CC2CC2C1 (stereo not drawn) [Example 22.4] | – | – | – | – | – | – | t1/2 INVITRO [2, 5]: >2.17 h
CS(=O)(=O)c1cc(C#N)ccc1C1NC(=O)N(c2ccnc(C(F)(F)F)c2)C2=C1C(=O)CC2 (stereo not drawn) [Example 15.6, 4-(2,5-dioxo-1-(2-(trifluoromethyl)pyridin-4-yl)-2,3,4,5,6,7-hexahydro-1H-cyclopenta[d]-pyrimidin-4-yl)-3-(methylsulfonyl)benzonitrile] | 76 (≈ 160 µM) | – | – | > 2.17 | 43.6 | – | –
CS(=O)(=O)c1cc(C#N)ccc1C1C2=C(CCC2=O)N(c2cccc(C(F)(F)F)c2)C(=O)N1CCCO (stereo not drawn) [Example 24.1] | – | – | – | – | – | – | Aqueous solubility (Aqueous solubility): 64 µg/mL; t1/2 INVITRO [2, 5]: 1.67 h
CCS(=O)(=O)c1cc(C#N)ccc1C1C2=C(CCC2=O)N(c2cccc(C(F)(F)F)c2)C(=O)N1S(C)(=O)=O (stereo not drawn) [Example 37.4] | 21 (≈ 37 µM) | – | – | > 2.17 | 1.7 | – | –
CN(CCO)C(=O)CN1C(=O)N(c2cccc(C(F)(F)F)c2)C2=C(C(=O)CC2)C1c1ccc(C#N)cc1S(C)(=O)=O (stereo not drawn) [Example 21, 2-(4-(4-Cyano-2-(methylsulfonyl)phenyl)-2,5-dioxo-1-(3-(trifluoromethyl)phenyl)-6,7-dihydro-1H-cyclopenta[d]pyrimidin-3(2H,4H,5H)-yl)-N-(2-hydroxyethyl)-N-methyl-acetamide] | 87 (≈ 147 µM) | – | – | > 2.17 | < 1 | 1 | –
CC(C)(O)CNC(=O)N1C(=O)N(c2ccnc(C(F)(F)F)c2)C2=C(C(=O)CC2)C1c1ccc(C#N)cc1 (stereo not drawn) [Example 55, 4-(4-Cyanophenyl)-N-(2-hydroxy-2-methylpropyl)-2,5-dioxo-1-(2-(trifluoromethyl)-pyridin-4-yl)-4,5,6,7-tetrahydro-1H-cyclopenta[d]pyrimidine-3(2H)-carboxamide] | – | – | – | > 2.17 | 6.1 | 3 | –
CN1C(=O)N(c2ccnc(C(F)(F)F)c2)C2=C(C(=O)CC2)C1c1ccc(C#N)cc1S(C)(=O)=O (stereo not drawn) [Example 29, 4-(3-Methyl-2,5-dioxo-1-(2-(trifluoromethyl)pyridin-4-yl)-2,3,4,5,6,7-hexahydro-1H-cyclopenta[d]pyrimidin-4-yl)-3-(methylsulfonyl)benzonitrile] | 79 (≈ 161 µM) | 11.8 | 66.2 | – | – | – | half-life at 1 μM ([2]; pooled human liver microsomes, 1 mg/ml protein, 1 μM test compound, 37° C., NADPH, read-out: t1/2 INVITRO): > 2.17 h
CN1C(=O)N(c2cccc(C(F)(F)F)c2)C2=C(C(=O)CC2)[C@H]1c1ccc(C#N)cc1 [Example 2A, (R)-4-(3-Methyl-2,5-dioxo-1-(3-(trifluoromethyl)phenyl)-2,3,4,5,6,7-hexahydro-1H-cyclopenta[d]pyrimidin-4-yl)benzonitrile] | 70 (≈ 170 µM) | 87 | 69 | – | – | – | –
N#Cc1ccc(C2C3=C(CCC3=O)N(c3cccc(C(F)(F)F)c3)C(=O)N2C(=O)N[C@@H]2CCC[C@H]2O)cc1 (stereo partly drawn) [Example 42.3] | 20 (≈ 38.1 µM) | 36.2 | 86 | > 2.17 | – | – | efflux ratio at 10 μM [1]: 2.4
CN(C)CCNC(=O)N1C(=O)N(c2cccc(C(F)(F)F)c2)C2=C(C(=O)CC2)C1c1ccc(C#N)cc1 (stereo not drawn) [Example 7.5] | – | – | – | – | – | – | Aqueous solubility (Aqueous solubility): 104 µg/mL
CS(=O)(=O)N1C(=O)N(c2cccc(C(F)(F)F)c2)C2=C(C(=O)CC2)C1c1ccc(C#N)cc1 (stereo not drawn) [Example 9, 4-(3-(Methylsulfonyl)-2,5-dioxo-1-(3-(trifluoromethyl)phenyl)-2,3,4,5,6,7-hexahydro-1H-cyclopenta[d]pyrimidin-4-yl)benzonitrile] | – | – | – | – | 5.1 | – | –
N#Cc1ccc(C2C3=C(CCC3=O)N(c3cccc(C(F)(F)F)c3)C(=O)N2C(=O)NC2CC[S+]([O-])CC2)cc1 (stereo not drawn) [Example 43, 4-(4-Cyanophenyl)-2,5-dioxo-N-(1-oxo-hexahydro-1λ^4-thiopyran-4-yl)-1-(3-(trifluoro-methyl)phenyl)-4,5,6,7-tetrahydro-1H-cyclopenta[d]pyrimidine-3(2H)-carboxamide] | – | – | – | – | < 1 | – | –
CN1C(=O)N(c2cccc(C(F)F)c2)C2=C(C(=O)CC2)[C@@H]1c1ccc(C#N)cc1 [Example 26B, (S)-4-(1-(3-(Difluoromethyl)phenyl)-3-methyl-2,5-dioxo-2,3,4,5,6,7-hexahydro-1H-cyclopenta[d]pyrimidin-4-yl)benzonitrile] | – | – | – | – | 3410 | – | –
CNC(=O)N1C(=O)N(c2cccc(C(F)F)c2)C2=C(C(=O)CC2)C1c1ccc(C#N)cc1S(C)(=O)=O (stereo not drawn) [Example 53.1] | – | – | – | – | < 1 | – | –
